Experimental findings from article PMC5218480 (PLoS ONE, 2017) are described below.

This assay concerns MV-4-11 cells. Nature of the assay: Gene expression microarray analysis (Affymetrix PrimeView) and GSEA. In kind it is cell-based, human. Set-up: RFU PODN (11730768_x_at) / Fold change /veh PODN (11730768_x_at) / RFU LINC00158 (11744669_a_at) / Fold change /veh LINC00158 (11744669_a_at) / RFU DUSP10 (11751237_a_at) / Fold change /veh DUSP10 (11751237_a_at) / RFU ID3 (11757404_x_at) / Fold change /veh ID3 (11757404_x_at) / RFU PLEKHG5 (11737974_s_at) / Fold change /veh PLEKHG5 (11737974_s_at) / RFU LRRC4B (11730491_at) / Fold change /veh LRRC4B (11730491_at) / RFU GIMAP4 (11747438_a_at) / Fold change /veh GIMAP4 (11747438_a_at) / RFU KRT8 (11758183_x_at) / Fold change /veh KRT8 (11758183_x_at) / RFU CNN1 (11734310_a_at) / Fold change /veh CNN1 (11734310_a_at) / RFU VPS37D (11726825_at) / Fold change /veh VPS37D (11726825_at) / RFU C10orf10 (11716522_x_at) / Fold change /veh C10orf10 (11716522_x_at) / RFU KIR2DL2 /// KIR2DL4 /// KIR2DL5A /// KIR2DL5B /// KIR2DS1 /// KIR2DS2 /// KIR2DS3 /// KIR2DS4 /// KIR3DL3 /// KIR3DL3 /// KIR3DS1 (11738374_at) / Fold change /veh KIR2DL2 /// KIR2DL4 /// KIR2DL5A /// KIR2DL5B /// KIR2DS1 /// KIR2DS2 /// KIR2DS3 /// KIR2DS4 /// KIR3DL3 /// KIR3DL3 /// KIR3DS1 (11738374_at) / RFU C1QL1 (11718748_at) / Fold change /veh C1QL1 (11718748_at) / RFU TMPRSS4 (11747572_a_at) / Fold change /veh TMPRSS4 (11747572_a_at) / RFU HAMP (11756126_x_at) / Fold change /veh HAMP (11756126_x_at) / RFU RNFT2 (11725882_a_at) / Fold change /veh RNFT2 (11725882_a_at) / RFU NR4A2 (11747474_a_at) / Fold change /veh NR4A2 (11747474_a_at) / RFU ABCC12 (11746883_a_at) / Fold change /veh ABCC12 (11746883_a_at) / RFU TMEM136 (11760407_x_at) / Fold change /veh TMEM136 (11760407_x_at) / RFU CLDN22 /// WWC2 (11732394_at) / Fold change /veh CLDN22 /// WWC2 (11732394_at) / RFU HLA-DPB1 (11760878_x_at) / Fold change /veh HLA-DPB1 (11760878_x_at) / RFU SPINT1 (11716480_a_at) / Fold change /veh SPINT1 (11716480_a_at) / RFU GAP43 (11754022_s_at) / Fold change /veh GAP43 (11754022_s_at) / RFU A4GNT (11735810_at) / Fold change /veh A4GNT (11735810_at) / RFU PRB3 (11715151_x_at) / Fold change /veh PRB3 (11715151_x_at) / RFU TUBB4B (11761932_at) / Fold change /veh TUBB4B (11761932_at) / RFU CAPN14 (11732068_a_at) / Fold change /veh CAPN14 (11732068_a_at) / RFU TMCC2 (11721928_a_at) / Fold change /veh TMCC2 (11721928_a_at) / RFU IRGQ (11745062_a_at) / Fold change /veh IRGQ (11745062_a_at) / RFU FAM174B (11720279_a_at) / Fold change /veh FAM174B (11720279_a_at) / RFU TMPRSS4 (11748680_a_at) / Fold change /veh TMPRSS4 (11748680_a_at) / RFU FAM212B (11763350_a_at) / Fold change /veh FAM212B (11763350_a_at) / RFU PLEKHG5 (11743358_a_at) / Fold change /veh PLEKHG5 (11743358_a_at) / RFU ZSCAN30 (11745921_a_at) / Fold change /veh ZSCAN30 (11745921_a_at) / RFU CMKLR1 (11741424_a_at) / Fold change /veh CMKLR1 (11741424_a_at) / RFU LOC101060620 /// MAPK8IP1 (11723275_at) / Fold change /veh LOC101060620 /// MAPK8IP1 (11723275_at) / RFU SPTSSB (11747773_x_at) / Fold change /veh SPTSSB (11747773_x_at) / RFU PRSS12 (11739890_at) / Fold change /veh PRSS12 (11739890_at) / RFU BIN1 (11741810_x_at) / Fold change /veh BIN1 (11741810_x_at) / RFU WNT11 (11732464_a_at) / Fold change /veh WNT11 (11732464_a_at) / RFU C10orf10 (11716521_a_at) / Fold change /veh C10orf10 (11716521_a_at) / RFU C5orf56 (11738089_at) / Fold change /veh C5orf56 (11738089_at) / RFU CYB561 (11721691_x_at) / Fold change /veh CYB561 (11721691_x_at) / RFU ANKRD19P (11752326_a_at) / Fold change /veh ANKRD19P (11752326_a_at) / RFU OR2T12 /// OR2T33 /// OR2T8 (11738714_s_at) / Fold change /veh OR2T12 /// OR2T33 /// OR2T8 (11738714_s_at) / RFU VCAN (11748164_a_at) / Fold change /veh VCAN (11748164_a_at) / RFU JSRP1 (11732532_at) / Fold change /veh JSRP1 (11732532_at) / RFU KRTAP10-11 (11738290_x_at) / Fold change /veh KRTAP10-11 (11738290_x_at) / RFU MYO3A (11730013_a_at) / Fold change /veh MYO3A (11730013_a_at) / RFU EBF3 (11725865_a_at) / Fold change /veh EBF3 (11725865_a_at) / RFU CAMK2N1 (11719241_x_at) / Fold change /veh CAMK2N1 (11719241_x_at) / RFU C5orf56 (11738088_a_at) / Fold change /veh C5orf56 (11738088_a_at) / RFU OLFML3 (11715873_a_at) / Fold change /veh OLFML3 (11715873_a_at) / RFU LOC100653217 /// NTM (11731650_a_at) / Fold change /veh LOC100653217 /// NTM (11731650_a_at) / RFU MAPK11 (11762145_a_at) / Fold change /veh MAPK11 (11762145_a_at) / RFU FIZ1 (11724087_x_at) / Fold change /veh FIZ1 (11724087_x_at) / RFU OASL (11726364_x_at) / Fold change /veh OASL (11726364_x_at) / RFU SOX15 (11748057_x_at) / Fold change /veh SOX15 (11748057_x_at) / RFU CD79A (11719716_a_at) / Fold change /veh CD79A (11719716_a_at) / RFU HIST1H1D (11736915_at) / Fold change /veh HIST1H1D (11736915_at) / RFU CASKIN2 (11723855_a_at) / Fold change /veh CASKIN2 (11723855_a_at) / RFU LOC730098 (11760151_x_at) / Fold change /veh LOC730098 (11760151_x_at) / RFU OR4N2 (11742367_at) / Fold change /veh OR4N2 (11742367_at) / RFU PRRT2 (11749266_a_at) / Fold change /veh PRRT2 (11749266_a_at) / RFU SNX32 (11753110_a_at) / Fold change /veh SNX32 (11753110_a_at) / RFU CDHR5 (11726645_a_at) / Fold change /veh CDHR5 (11726645_a_at) / RFU RCAN1 (11760418_a_at) / Fold change /veh RCAN1 (11760418_a_at) / RFU FAM167A (11723789_a_at) / Fold change /veh FAM167A (11723789_a_at) / RFU FAM26E (11764081_at) / Fold change /veh FAM26E (11764081_at) / RFU ISYNA1 (11749810_s_at) / Fold change /veh ISYNA1 (11749810_s_at) / RFU ACY1 (11761880_at) / Fold change /veh ACY1 (11761880_at) / RFU 11764098_at / Fold change /veh 11764098_at / RFU SAMD14 (11745864_x_at) / Fold change /veh SAMD14 (11745864_x_at) / RFU NPB (11741838_a_at) / Fold change /veh NPB (11741838_a_at) / RFU TMPRSS6 (11731388_a_at) / Fold change /veh TMPRSS6 (11731388_a_at) / RFU KRTAP10-2 (11738614_at) / Fold change /veh KRTAP10-2 (11738614_at) / RFU ARHGAP8 /// PRR5-ARHGAP8 (11727945_x_at) / Fold change /veh ARHGAP8 /// PRR5-ARHGAP8 (11727945_x_at) / RFU KRTAP5-7 /// NADSYN1 (11734609_at) / Fold change /veh KRTAP5-7 /// NADSYN1 (11734609_at) / RFU RASL12 (11751679_a_at) / Fold change /veh RASL12 (11751679_a_at) / RFU CDKN2B (11736163_a_at) / Fold change /veh CDKN2B (11736163_a_at) / RFU PRF1 (11729649_at) / Fold change /veh PRF1 (11729649_at) / RFU, ZNF638 /// ZNF638-IT1 / Fold change vs veh, ZNF638 /// ZNF638-IT1 / RFU, PANK3 / Fold change vs veh, PANK3 / RFU, SH3YL1 / Fold change vs veh, SH3YL1 / RFU, ZEB2 / Fold change vs veh, ZEB2 / RFU, NRIP1 / Fold change vs veh, NRIP1 / RFU, PTTG1IP / Fold change vs veh, PTTG1IP / RFU, CAPN2 / Fold change vs veh, CAPN2 / RFU, MED14 / Fold change vs veh, MED14 / RFU, SNORA58 / Fold change vs veh, SNORA58 / RFU, C1orf63 / Fold change vs veh, C1orf63 / RFU, LRRFIP1 / Fold change vs veh, LRRFIP1 / RFU, NDUFAF7 / Fold change vs veh, NDUFAF7 / RFU, SLC12A2 / Fold change vs veh, SLC12A2 / RFU, IBTK / Fold change vs veh, IBTK / RFU, ESF1 / Fold change vs veh, ESF1 / Fold change vs veh, TMEM50B / RFU, TAOK1 / Fold change vs veh, TAOK1 / RFU, ACBD3 / Fold change vs veh, ACBD3 / RFU, TMA16 / Fold change vs veh, TMA16 / RFU, RWDD3 / Fold change vs veh, RWDD3 / RFU, BCAT1 / Fold change vs veh, BCAT1 / RFU, EDEM3 / Fold change vs veh, EDEM3 / RFU, TMEM33 / Fold change vs veh, TMEM33 / RFU, WDR75 / Fold change vs veh, WDR75 / RFU, AHCTF1 / Fold change vs veh, AHCTF1 / RFU, TFRC / Fold change vs veh, TFRC / RFU, ZDHHC17 / Fold change vs veh, ZDHHC17 / RFU, NOM1 / Fold change vs veh, NOM1 / RFU, ARL8B / Fold change vs veh, ARL8B / RFU, ZBTB11 / Fold change vs veh, ZBTB11 / RFU, TAMM41 / Fold change vs veh, TAMM41 / RFU, KIAA1704 /// LOC100996395 / Fold change vs veh, KIAA1704 /// LOC100996395 / RFU, ING1 / Fold change vs veh, ING1 / RFU, TRMT61B / Fold change vs veh, TRMT61B / RFU, FUBP3 / Fold change vs veh, FUBP3 / RFU, TP53 / Fold change vs veh, TP53 / RFU, TNKS2 / Fold change vs veh, TNKS2 / RFU, ZFP14 / Fold change vs veh, ZFP14 / RFU, ACTR2 / Fold change vs veh, ACTR2 / RFU, PPP3R1 / Fold change vs veh, PPP3R1 / RFU, PIK3R1 / Fold change vs veh, PIK3R1 / RFU, HNRNPA1 / Fold change vs veh, HNRNPA1 / RFU, RNF170 / Fold change vs veh, RNF170 / RFU, ZNF28 / Fold change vs veh, ZNF28 / RFU, RNGTT / Fold change vs veh, RNGTT / RFU, OGT / Fold change vs veh, OGT / RFU, BRD1 / Fold change vs veh, BRD1 / RFU, MARS / Fold change vs veh, MARS / RFU, ZNF655 / Fold change vs veh, ZNF655 / RFU, FAHD1 / Fold change vs veh, FAHD1 / RFU, BDP1 / Fold change vs veh, BDP1 / RFU, LRRCC1 / Fold change vs veh, LRRCC1 / RFU, ARID1A / Fold change vs veh, ARID1A / RFU, ZNF146 / Fold change vs veh, ZNF146 / RFU, ZNF330 / Fold change vs veh, ZNF330 / RFU, GPN3 / Fold change vs veh, GPN3 / RFU, C9orf123 / Fold change vs veh, C9orf123 / RFU, N4BP2L2 / Fold change vs veh, N4BP2L2 / RFU, ARFIP1 / Fold change vs veh, ARFIP1 / RFU, FAM179B / Fold change vs veh, FAM179B / RFU, BCL10 / Fold change vs veh, BCL10 / RFU, UHRF1BP1L / Fold change vs veh, UHRF1BP1L / RFU, BET1 / Fold change vs veh, BET1 / RFU, CNOT2 / Fold change vs veh, CNOT2 / RFU, ZNF268 / Fold change vs veh, ZNF268 / Fold change vs veh, ZNF507 / RFU, DGCR2 / Fold change vs veh, DGCR2 / RFU, WDSUB1 / Fold change vs veh, WDSUB1 / Fold change vs veh, HSP90B1 /// MIR3652 / RFU, ADSS / Fold change vs veh, ADSS / RFU, GK / Fold change vs veh, GK / RFU, ZNF148 / Fold change vs veh, ZNF148 / RFU, TAF9 / Fold change vs veh, TAF9 / RFU, SLC1A5 / Fold change vs veh, SLC1A5 / RFU, SLMO2 / Fold change vs veh, SLMO2 / RFU, ABCC4 / Fold change vs veh, ABCC4 / RFU, LOC101060439 /// RAP1B / Fold change vs veh, LOC101060439 /// RAP1B / RFU, RFX7 / Fold change vs veh, RFX7 / RFU, GTPBP10 / Fold change vs veh, GTPBP10 / RFU, CNEP1R1 / Fold change vs veh, CNEP1R1 / RFU, BIVM-ERCC5 /// ERCC5 / Fold change vs veh, BIVM-ERCC5 /// ERCC5 / RFU, ILF3 / Fold change vs veh, ILF3 / RFU 11762660_at / Fold change /veh 11762660_at / RFU VCAN (11757783_s_at) / Fold change /veh VCAN (11757783_s_at) / RFU DDX43 (11728927_at) / Fold change /veh DDX43 (11728927_at) / RFU KRT8 (11758188_x_at) / Fold change /veh KRT8 (11758188_x_at) / RFU NKD1 (11759106_at) / Fold change /veh NKD1 (11759106_at) / RFU SRD5A1 (11742802_a_at) / Fold change /veh SRD5A1 (11742802_a_at) / RFU TPSAB1 /// TPSB2 (11721975_s_at) / Fold change /veh TPSAB1 /// TPSB2 (11721975_s_at) / RFU GSTM3 (11746129_a_at) / Fold change /veh GSTM3 (11746129_a_at) / RFU IL23R (11737362_x_at) / Fold change /veh IL23R (11737362_x_at) / RFU TMEM51 (11727254_a_at) / Fold change /veh TMEM51 (11727254_a_at) / RFU PIWIL2 (11732686_x_at) / Fold change /veh PIWIL2 (11732686_x_at) / RFU ORM1 (11744905_x_at) / Fold change /veh ORM1 (11744905_x_at) / RFU CCDC152 (11743942_at) / Fold change /veh CCDC152 (11743942_at) / RFU ECM1 (11717891_a_at) / Fold change /veh ECM1 (11717891_a_at) / RFU IL23R (11748794_a_at) / Fold change /veh IL23R (11748794_a_at) / RFU TNFAIP8L3 (11732012_x_at) / Fold change /veh TNFAIP8L3 (11732012_x_at) / RFU MBOAT4 (11741988_at) / Fold change /veh MBOAT4 (11741988_at) / RFU 11764193_at / Fold change /veh 11764193_at / RFU TMEM53 (11763286_at) / Fold change /veh TMEM53 (11763286_at) / RFU MAGEB2 (11727129_at) / Fold change /veh MAGEB2 (11727129_at) / RFU TMEM200A (11744735_a_at) / Fold change /veh TMEM200A (11744735_a_at) / RFU CCDC152 (11751479_a_at) / Fold change /veh CCDC152 (11751479_a_at) / RFU FAM211A (11726209_a_at) / Fold change /veh FAM211A (11726209_a_at) / RFU RGS16 (11746705_a_at) / Fold change /veh RGS16 (11746705_a_at) / RFU VCAN (11755009_s_at) / Fold change /veh VCAN (11755009_s_at) / RFU RHOB (11743442_s_at) / Fold change /veh RHOB (11743442_s_at) / RFU RGS16 (11720943_a_at) / Fold change /veh RGS16 (11720943_a_at) / RFU RGS16 (11720944_at) / Fold change /veh RGS16 (11720944_at) / RFU, VPS4B / Fold change vs veh, VPS4B / RFU, CREB1 / Fold change vs veh, CREB1 / RFU, DNAJC13 / Fold change vs veh, DNAJC13 / RFU, GNAQ / Fold change vs veh, GNAQ / RFU, CDK5R1 / Fold change vs veh, CDK5R1 / RFU, ZRANB3 / Fold change vs veh, ZRANB3 / RFU, CUL4A / Fold change vs veh, CUL4A / RFU, CCNY / Fold change vs veh, CCNY / RFU, UFL1 / Fold change vs veh, UFL1 / RFU, COG3 / Fold change vs veh, COG3 / RFU, DIAPH2 / Fold change vs veh, DIAPH2 / RFU, SKA2 / Fold change vs veh, SKA2 / RFU, AFF3 / Fold change vs veh, AFF3 / RFU, LMF1 / Fold change vs veh, LMF1 / RFU, IPO11 / Fold change vs veh, IPO11 / RFU, DFFB / Fold change vs veh, DFFB / RFU, FOXP1 / Fold change vs veh, FOXP1 / RFU, CARD8 / Fold change vs veh, CARD8 / RFU, STRN3 / Fold change vs veh, STRN3 / RFU, ADK / Fold change vs veh, ADK / RFU, RASSF2 / Fold change vs veh, RASSF2 / RFU, WIPF1 / Fold change vs veh, WIPF1 / RFU, LARP1B / Fold change vs veh, LARP1B / RFU, RASA1 / Fold change vs veh, RASA1 / RFU, RB1 / Fold change vs veh, RB1 / RFU, PPFIA1 / Fold change vs veh, PPFIA1 / RFU, MAT2A / Fold change vs veh, MAT2A / RFU, CCT5 / Fold change vs veh, CCT5 / RFU, WDR92 / Fold change vs veh, WDR92 / RFU, CUX1 / Fold change vs veh, CUX1 / RFU, TTC7A / Fold change vs veh, TTC7A / RFU, TMEM135 / Fold change vs veh, TMEM135 / RFU, DEPTOR / Fold change vs veh, DEPTOR / RFU, CPM / Fold change vs veh, CPM / RFU, DNAJB6 / Fold change vs veh, DNAJB6 / RFU, CACNA2D3 / Fold change vs veh, CACNA2D3 / RFU, DTX4 / Fold change vs veh, DTX4 / RFU, TFCP2 / Fold change vs veh, TFCP2 / RFU, GMCL1 /// GMCL1P1 / Fold change vs veh, GMCL1 /// GMCL1P1 / RFU, AEBP2 / Fold change vs veh, AEBP2 / RFU, SNHG1 /// SNORD22 /// SNORD25 /// SNORD26 /// SNORD27 /// SNORD28 /// SNORD29 /// SNORD31 / Fold change vs veh, SNHG1 /// SNORD22 /// SNORD25 /// SNORD26 /// SNORD27 /// SNORD28 /// SNORD29 /// SNORD31 / Fold change (Aza/veh), C12orf56 (ProbeSet 11735607_a_at) / Fold change (ACY-1035/veh), C12orf56 (ProbeSet 11735607_a_at) / Fold change (Aza/veh), FGFR1OP (ProbeSet 11751329_s_at) / Fold change (ACY-1035/veh), FGFR1OP (ProbeSet 11751329_s_at) / Fold change (Aza/veh), VPS36 (ProbeSet 11739960_a_at) / Fold change (ACY-1035/veh), VPS36 (ProbeSet 11739960_a_at) / RFU SYPL1 (11715823_x_at) / Fold change /veh SYPL1 (11715823_x_at) / RFU IGFBP7 (11715501_s_at) / Fold change /veh IGFBP7 (11715501_s_at) / RFU REEP3 (11722064_at) / Fold change /veh REEP3 (11722064_at) / RFU IGLL1 (11728026_x_at) / Fold change /veh IGLL1 (11728026_x_at): dose or concentration left out as unconfirmed. The settings on record: ProbeSet 11732165_x_at; LIST D.

Regarding `Nc1ncn([C@@H]2O[C@H](CO)[C@@H](O)[C@H]2O)c(=O)n1` [azacitidine], the “RFU, LMF1” value was 50.31 RFU.
